Experimental data taken from patent US7858738B2, “Synthetic human peptides and pharmaceutical compositions comprising them for the treatment of systemic lupus erythematosus” (Yeda Research and Development Co., Ltd., priority 2001, dated 2010).

Tests used:
BALB/c-derived LNC = experiment: In vivo inhibition of proliferation of BALB/c LNC to the human 16/6Id mAb; set-up: species or system mice
Method: Because our aim was to test the inhibitory capacity of the peptides based on the CDR of the human 16/6Id autoantibody, it was of importance to find out whether peptides hCDR1 and hCDR3 are capable of inhibiting the priming to the whole molecule of the human 16/6Id mAb. To this end, BALB/c and SJL mice were primed with the human 16/6Id mAb (2 μg/mouse) in CFA intradermally in the hind footpads. […] Ten days following immunization, the mice were sacrificed and their LNCs were tested in vitro for their ability to proliferate to different concentrations (0.1-10 μg/well) of the human anti-DNA 16/6Id mAb.
(§1) The results are presented as maximum % inhibition of the proliferation to the immunizing human 16/6Id mAb of lymph node cells of mice immunized and treated with the peptides hCDR1 and hCDR3 as compared with mice that were immunized with the 16/6Id mAb but were not treated with the peptides.
In another experiment, BALB/c mice were immunized with 1 μg human 16/6Id in CFA, intradermally in the hind footpads, and either were injected with hCDR1 s.c., 300 μg/mouse in PBS, or were not further treated. Ten days later the mice were sacrificed and their LNC were tested for their ability to proliferate in vitro to the human 16/6Id. Thus, popliteal LNCs (0.5×10^6) were incubated in the presence of various concentrations (0.1-10 μg/well) of the human anti-DNA 16/6Id mAb. At the end of 4 days incubation, ^3H-thymidine was added to the cultures for the last 18 hours of incubation. Cells were then harvested and radioactivity counted.

MMP-3 = MMP-3 levels in sera of (NZB×NZW)F1 mice (Western blot); type: in vivo; settings: 300 μg s.c. once a week from age 7 months; sera after 5 injections; FIG. 23
Method: Induction and treatment of experimental SLE. In order to induce experimental SLE, BALB/c mice were immunized with 1-2 μg of the human mAb 16/6Id and boosted 3 weeks later. For the prevention of experimental SLE, mice were given hCDR1 or hCDR3 (mCDR1 or revmCDR1 as control peptide in Example 12) intravenously (i.v.) or s.c. concomitant with the immunization, and were injected weekly thereafter for 5 weeks. Treatment of an established disease started three and a half months following disease induction with the 16/6Id, when clinical manifestations were already observed. In Example 12, mice received 10 weekly injections (i.v. or s.c.) of mCDR1 or revmCDR1 at a dose of 100 μg/mouse. Prevention and treatment of SLE-like disease in (NZB×NZW)F1 mice with the hCDR1 or mCDR1 peptide. For prevention of SLE, mice at the age of 2 months, before disease manifestations are observed, were injected s.c. with hCDR1 (or mCDR1 in Example 12, 250 μg/mouse) once a week for 10 weeks. To treat an established disease, mice at the age of 5-7 months were injected with hCDR1 (in Example 12, mCDR1 s.c., 250 μg/mouse) once a week for 10 weeks. Proliferative Responses. PBL were isolated from heparinized venous blood by Ficoll-Hypaque (Pharmacia) density-gradient centrifugation. […] Results are expressed as the mean thymidine incorporation in counts per minute (CPM) of triplicate culture±SD, or as stimulation index (S.I.; the ratio of mean CPM at the optimal concentration of the human 16/6Id to the mean CPM in the presence of medium alone). […] TGF-β was determined by an ELISA. […] The substrate solution used was TMB color Reagent (Helix Diagnostics, West Sacramento, Calif.), and enzyme activity was evaluated by using 570- and 630-nm filters. […] Proteinuria was measured semiquantitatively by using Combistix kit (Ames Division, Bayer Diagnostics, Newbury, U.K.). White blood cells (WBC, for leukopenia) were counted after a 10-fold dilution of heparinized blood in distilled water containing 1% acetic acid (vol/vol). […]

SJL-derived LNC = experiment: In vivo inhibition of proliferation of SJL LNC to the human 16/6Id mAb; set-up: species or system mice; settings: maximum % inhibition; 200 μg/mouse s.c. in PBS concomitant with priming
Method: Because our aim was to test the inhibitory capacity of the peptides based on the CDR of the human 16/6Id autoantibody, it was of importance to find out whether peptides hCDR1 and hCDR3 are capable of inhibiting the priming to the whole molecule of the human 16/6Id mAb. To this end, BALB/c and SJL mice were primed with the human 16/6Id mAb (2 μg/mouse) in CFA intradermally in the hind footpads. The priming was done concomitant with the s.c. administration in PBS of 200 μg/mouse of hCDR1 to groups of BALB/c mice and of hCDR3 to SJL mice. Ten days following immunization, the mice were sacrificed and their LNCs were tested in vitro for their ability to proliferate to different concentrations (0.1-10 μg/well) of the human anti-DNA 16/6Id mAb.
as §1

Sequence | % inhibition of proliferation (BALB/c-derived LNC; 50 μg/mouse s.c. in PBS, 16/6Id mAb 0.1 μg/well) | % inhibition of proliferation (BALB/c-derived LNC; 50 μg/mouse s.c. in PBS, 16/6Id mAb 5 μg/well) | % inhibition of proliferation (BALB/c-derived LNC; 50 μg/mouse s.c. in PBS, 16/6Id mAb 10 μg/well) | % inhibition of proliferation (BALB/c-derived LNC; 300 μg/mouse s.c. in PBS, 16/6Id mAb 0.1 μg/well) | % inhibition of proliferation (BALB/c-derived LNC; 300 μg/mouse s.c. in PBS, 16/6Id mAb 1 μg/well) | % inhibition of proliferation (BALB/c-derived LNC; 300 μg/mouse s.c. in PBS, 16/6Id mAb 5 μg/well) | % inhibition of proliferation (BALB/c-derived LNC; 300 μg/mouse s.c. in PBS, 16/6Id mAb 10 μg/well) | % Inhibition of the proliferation of BALB/c-derived LNC to the human 16/6Id mAb (BALB/c-derived LNC; maximum % inhibition, 200 μg/mouse s.c. in PBS concomitant with priming) | levels of MMP-3 in pooled sera (MMP-3) | % Inhibition of the proliferation of SJL-derived LNC to the human 16/6Id mAb (SJL-derived LNC)
GYYWSWIRQPPGKGEEWIG (Human) [hCDR1, 19-mer peptide based on the CDR1 of the heavy chain of the human 16/6Id mAb] | 98% | 73% | 64% | 47% | 66% | 76% | 62% | 88% | down regulated | 
YYCARGLLRGGWNDVDYYGMDV (Human) [hCDR3, peptide based on the CDR3 of the heavy chain of the human 16/6Id mAb] |  |  |  |  |  |  |  |  |  | 68%
